Test results: ChEMBL document CHEMBL1201862, “PubChem BioAssay data set” (2004)
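Step 1: Grow cells in 96-well plates. Step 2: Expose to compound for 48 hours at 5 concentrations. Step 3: Interpolate endpoints linearly; if unreached, use highest concentration. The concentration for 50% growth inhibition is given as GI50.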 Active and inactive are the calls of the source. Rule as the data show it: active = GI50 up to about 1.1 µM and inactive = higher.

Assays:
Test in all cases: growth of human tumour cells (NCI), 48 h
[1] = test system: HCT-116
[2] = test system: CAKI-1
[3] = test system: MDA-MB-435
[4] = test system: ACHN
[5] = test system: NCI-H226
[6] = test system: NCI-H23
[7] = test system: M14
[8] = test system: KM12
[9] = test system: SF-268
[10] = test system: HL-60
[11] = test system: OVCAR-5
[12] = test system: A498
[13] = test system: RXF 631
[14] = test system: Hs-578T
[15] = test system: SNB-78
[16] = test system: OVCAR-3
[17] = test system: SF-539
[18] = test system: SK-MEL-5
[19] = test system: LXFL 529
[20] = test system: SNB-75
[21] = test system: UACC-62
[22] = test system: DMS-114
[23] = test system: KM-20L2
[24] = test system: HOP-62
[25] = test system: MDA-N
[26] = test system: DMS-273
[27] = test system: A549
[28] = test system: OVCAR-8
[29] = test system: SN12C
[30] = test system: MDA-MB-231
[31] = test system: PC-3
[32] = test system: DU-145
[33] = test system: EKVX
[34] = test system: OVCAR-4
[35] = test system: SW-620
[36] = test system: UACC-257
[37] = test system: HT-29
[38] = test system: COLO 205
[39] = test system: LOX IMVI
[40] = test system: SK-MEL-28
[41] = test system: SK-OV-3
[42] = test system: SK-MEL-2
[43] = test system: NCI-H522
[44] = test system: SR
[45] = test system: K562
[46] = test system: U-251
[47] = test system: Malme-3M
[48] = test system: M19-MEL
[49] = test system: BT-549
[50] = test system: TK-10
[51] = test system: NCI-H460
[52] = test system: MCF7
[53] = test system: RPMI-8226
[54] = test system: HOP-18
[55] = test system: IGROV-1
[56] = test system: HCC 2998
[57] = test system: NCI/ADR-RES
[58] = test system: HCT-15
[59] = test system: DLD-1
[60] = test system: HOP-92
[61] = test system: UO-31
[62] = test system: SNB-19
[63] = test system: RXF 393
[64] = test system: 786-0
[65] = test system: SF-295

CCN(CC)CC(O)CNc1ccc(NCC2CO2)c2c1C(=O)c1ccccc1C2=O (stereo not given)
GI50 [1]: 0.0466 µM (active) | GI50 [2]: 0.619 µM (active) | GI50 [3]: 0.211 µM (active) | GI50 [4]: 0.144 µM (active) | GI50 [5]: 1.32 µM (inactive) | GI50 [6]: 0.499 µM (active) | GI50 [7]: 0.199 µM (active) | GI50 [8]: 0.294 µM (active) | GI50 [9]: 0.0619 µM (active) | GI50 [10]: 0.0236 µM (active) | GI50 [11]: 2.3 µM (inactive) | GI50 [12]: 3.51 µM (inactive) | GI50 [13]: 0.272 µM (active) | GI50 [14]: 1.14 µM (inactive) | GI50 [15]: 0.398 µM (active) | GI50 [16]: 0.46 µM (active) | GI50 [17]: 1.32 µM (inactive) | GI50 [18]: 0.447 µM (active) | GI50 [19]: 0.0486 µM (active) | GI50 [20]: 1.6 µM (inactive) | GI50 [21]: 0.56 µM (active) | GI50 [22]: 1.04 µM (active) | GI50 [23]: 0.692 µM (active) | GI50 [24]: 1.15 µM (inactive) | GI50 [25]: 0.323 µM (active) | GI50 [26]: 0.242 µM (active) | GI50 [27]: 1.03 µM (active) | GI50 [28]: 0.0661 µM (active) | GI50 [29]: 0.139 µM (active) | GI50 [30]: 0.536 µM (active) | GI50 [31]: 0.74 µM (active) | GI50 [32]: 1.63 µM (inactive) | GI50 [33]: 1.74 µM (inactive) | GI50 [34]: 1.18 µM (inactive) | GI50 [35]: 0.0327 µM (active) | GI50 [36]: 1.48 µM (inactive) | GI50 [37]: 0.553 µM (active) | GI50 [38]: 0.906 µM (active) | GI50 [39]: < 0.01 µM (active) | GI50 [40]: 1.11 µM (active) | GI50 [41]: 1.86 µM (inactive) | GI50 [42]: 0.226 µM (active) | GI50 [43]: 0.647 µM (active) | GI50 [44]: 0.055 µM (active) | GI50 [45]: 0.0479 µM (active) | GI50 [46]: 1.24 µM (inactive) | GI50 [47]: 1.93 µM (inactive) | GI50 [48]: 0.125 µM (active) | GI50 [49]: 0.194 µM (active) | GI50 [50]: 2.29 µM (inactive) | GI50 [51]: 0.695 µM (active) | GI50 [52]: 0.0109 µM (active) | GI50 [53]: 0.614 µM (active) | GI50 [54]: 16.6 µM (inactive) | GI50 [55]: 1.63 µM (inactive) | GI50 [56]: 1.19 µM (inactive) | GI50 [57]: 0.0993 µM (active) | GI50 [58]: 0.638 µM | GI50 [59]: 1.9 µM (inactive) | GI50 [60]: 1.75 µM (inactive) | GI50 [61]: 0.594 µM (active) | GI50 [62]: 1.68 µM (inactive) | GI50 [63]: 0.397 µM (active) | GI50 [64]: 0.186 µM (active) | GI50 [65]: 1.05 µM (active)
